According to US20080280862A1, “Methods, compositions, and kits for the treatment of pain” (priority 2007, published 2008):

Legend:
[1] = system: carrageenan-induced pain model in rats; test: Carrageenan pain model, mechanical allodynia by Von Frey filaments; format: in vivo, Sprague-Dawley rats; settings: for Mean AUC ± SEM: AUC from 20 minutes through 120 minutes following carrageenan injection
Protocol: The carrageenan model is a fast, reliable model used to assess the ability of analgesics to block inflammatory pain. The analgesic effects of test article combinations on pain generation are assayed using the carrageenan-induced pain model in rats. Adult male Sprague-Dawley rats are administered study drugs intraperitoneally (vehicle, tricyclic compound (TCA), steroid or TCA/Steroid test article combinations) once daily for 2 days (day −2 and day −1) and 30 minutes prior to the carrageenan injection on day 0 (time=0). For the carrageenan injection, animals are lightly anesthetized and 0.1 ml of 2% carrageenan is injected into the plantar surface of the right hind paw. The positive control diclofenac at a dose of 25 mg/kg is administered intraperitoneally immediately before the carrageenan injection. Paw volumes (right and left) are measured using a plathysmometer before drug administration on day −2 and serve as a baseline measurement. The paw volumes are measured again two hours post carrageenan injection. The degree of mechanical allodynia is measured by a blinded observer using Von Frey filaments applied to the plantar surface of the hind paws in an increasing numerical order. Each filament increases the force applied on the paw. The filaments are applied until animal paw withdrawal is achieved. This procedure is carried out before drug administration (day −2), on day −1 and on day 0 at time=0, 20, 40, 60, 80 and 120 minutes post-carrageenan. The force (expressed in grams) required for paw withdrawal after carrageenan injection is subtracted from the force required for paw withdrawal before carrageenan injection. Results are expressed as mean change from baseline across five timepoints post carrageenan injection in Table 4.
For a synergy calculation, experimental data from the carrageenan study are fitted to a median-effect model and used to calculate the parameters' median-effect dose (Dm), slope (m), correlation coefficient (r), combination index (CI) and dose-reduction index (DRI). In addition, the probability of pain inhibition occurring after single-component (nortriptyline) versus the combination drug treatments are calculated from the negative change from baseline data using a Bayesian sensitivity analysis. The likelihood of pain inhibition is characterized for nortriptyline administered alone (1 mg/kg or 3 mg/kg) versus the fixed-dose combination treatments [prednisolone (0.3 mg/kg):nortriptyline (1 mg/kg) or prednisolone (1 mg/kg):nortriptyline (3 mg/kg)] each evaluated at 60 and 80 minutes for analgesic effect.
In another example, the effects of test article combinations on pain inhibition were assayed using the carrageenan model in rodents. Desipramine was tested alone and in combination at 0.3, 1, and 3 mg/kg and prednisolone was tested similarly at 0.3, 1 and 3 mg/kg IP.

[2] = system: TNFα; test: TNFα secretion by human white blood cells stimulated with PMA/ionomycin, synergy score; format: cell-based; parameters: key: S = Σ Idata(Idata−ILoewe) × ln dilution factors; volume over Loewe additivity; settings: PBMC stimulated with PMA/Ionomycin
Protocol: A 100 μl suspension of diluted human white blood cells contained within each well of a polystyrene 384-well plate (NalgeNunc) was stimulated to secrete TNFα by treatment with a final concentration of 10 ng/mL phorbol 12-myristate 13-acetate (Sigma, P-1585) and 750 ng/mL ionomycin (Sigma, I-0634). Various concentrations of each test compound were added at the time of stimulation. After 16-18 hours of incubation at 37° C. in a humidified incubator, the plate was centrifuged and the supernatant transferred to a white opaque polystyrene 384-well plate (NalgeNunc, Maxisorb) coated with an anti-TNFα antibody (PharMingen, #551220). After a two-hour incubation, the plate was washed (Tecan PowerWasher 384) with PBS containing 0.1% Tween 20 and incubated for an additional one hour with another anti-TNFα antibody that was biotin labeled (PharMingen, #554511) and HRP coupled to strepavidin (PharMingen, #13047E). After the plate was washed with 0.1% Tween 20/PBS, an HRP-luminescent substrate was added to each well and light intensity measured using a LJL Analyst plate luminometer.
The synergy scores calculated for the various combinations of compounds set forth in Table 3 was calculated by the formula S=log fX log fYΣIdata(Idata−ILoewe), summed over all non-single-agent concentration pairs, and where log fX,Y are the natural logarithm of the dilution factors used for each single agent. This effectively calculates a volume between the measured and Loewe additive response surfaces, weighted towards high inhibition and corrected for varying dilution factors.

[3] = Experiment One, 3 mg/kg, 20 minutes
[4] = Experiment One, 3 mg/kg, 40 minutes
[5] = Experiment One, 3 mg/kg, 60 minutes
[6] = Experiment One, 3 mg/kg, 80 minutes
[7] = Experiment One, 3 mg/kg, 120 minutes
[8] = Experiment One, 10 mg/kg, 20 minutes
[9] = Experiment One, 10 mg/kg, 40 minutes
[10] = Experiment One, 10 mg/kg, 60 minutes
[11] = Experiment One, 10 mg/kg, 80 minutes
[12] = Experiment One, 10 mg/kg, 120 minutes
[13] = Experiment One, 20 mg/kg, 20 minutes
[14] = Experiment One, 20 mg/kg, 40 minutes
[15] = Experiment One, 20 mg/kg, 60 minutes
[16] = Experiment One, 20 mg/kg, 80 minutes

## C[C@]12C=CC(=O)C=C1CC[C@@H]1[C@@H]2[C@@H](O)C[C@@]2(C)[C@H]1CC[C@]2(O)C(=O)CO [Prednisolone]
[1]; 0.3 mg/Kg
  Mean AUC ± SEM: 2302 ± 634.46
[1]; 1 mg/Kg
  Mean AUC ± SEM: 1583 ± 574.15
[1]; [3]
  Mean change from baseline ± SEM: 1.10 ± 9.30 g
[1]; [4]
  Mean change from baseline ± SEM: -52.01 ± 12.52 g
[1]; [5]
  Mean change from baseline ± SEM: -101.90 ± 15.02 g
[1]; [6]
  Mean change from baseline ± SEM: -159.70 ± 16.77 g
[1]; [7]
  Mean change from baseline ± SEM: -212.90 ± 20.82 g
[1]; [8]
  Mean change from baseline ± SEM: 5.60 ± 6.14 g
[1]; [9]
  Mean change from baseline ± SEM: -44.30 ± 11.47 g
[1]; [10]
  Mean change from baseline ± SEM: -97.50 ± 14.33 g
[1]; [11]
  Mean change from baseline ± SEM: -147.30 ± 16.72 g
[1]; [12]
  Mean change from baseline ± SEM: -193.70 ± 18.07 g
[1]; [13]
  Mean change from baseline ± SEM: -29.40 ± 5.10 g
[1]; [14]
  Mean change from baseline ± SEM: -82.60 ± 5.59 g
[1]; [15]
  Mean change from baseline ± SEM: -135.80 ± 7.21 g
[1]; [16]
  Mean change from baseline ± SEM: -189.00 ± 8.41 g
[1]; Experiment One, 20 mg/kg, 120 minutes
  Mean change from baseline ± SEM: -246.20 ± 12.02 g
[1]; Experiment One, 35 mg/kg, 20 minutes
  Mean change from baseline ± SEM: -13.60 ± 7.52 g
[1]; Experiment One, 35 mg/kg, 40 minutes
  Mean change from baseline ± SEM: -73.60 ± 7.52 g
[1]; Experiment One, 35 mg/kg, 60 minutes
  Mean change from baseline ± SEM: -130.20 ± 7.26 g
[1]; Experiment One, 35 mg/kg, 80 minutes
  Mean change from baseline ± SEM: -176.60 ± 10.69 g
[1]; Experiment One, 35 mg/kg, 120 minutes
  Mean change from baseline ± SEM: -216.20 ± 11.39 g
[1]; Experiment Two, first set of rows, 0.3 mg/kg, 20 minutes
  Mean change from baseline ± SEM: 4.79 ± 7.92 g
[1]; Experiment Two, first set of rows, 0.3 mg/kg, 40 minutes
  Mean change from baseline ± SEM: 16.77 ± 5.63 g
[1]; Experiment Two, first set of rows, 0.3 mg/kg, 60 minutes
  Mean change from baseline ± SEM: 19.7 ± 5.68 g
[1]; Experiment Two, first set of rows, 0.3 mg/kg, 80 minutes
  Mean change from baseline ± SEM: 24.31 ± 6.40 g
[1]; Experiment Two, first set of rows, 0.3 mg/kg, 120 minutes
  Mean change from baseline ± SEM: 25.57 ± 6.79 g
[1]; Experiment Two, first set of rows, 1 mg/kg, 20 minutes
  Mean change from baseline ± SEM: 27.60 ± 5.74 g
[1]; Experiment Two, first set of rows, 1 mg/kg, 40 minutes
  Mean change from baseline ± SEM: 28.64 ± 5.42 g
[1]; Experiment Two, first set of rows, 1 mg/kg, 60 minutes
  Mean change from baseline ± SEM: 25.54 ± 6.04 g
[1]; Experiment Two, first set of rows, 1 mg/kg, 80 minutes
  Mean change from baseline ± SEM: 23.77 ± 6.08 g
[1]; Experiment Two, first set of rows, 1 mg/kg, 120 minutes
  Mean change from baseline ± SEM: 35.14 ± 5.26 g
[1]; Experiment Two, second set of rows, 0.3 mg/kg, 20 minutes
  Mean change from baseline ± SEM: 0.00 ± 7.42 g
[1]; Experiment Two, second set of rows, 0.3 mg/kg, 40 minutes
  Mean change from baseline ± SEM: -4.86 ± 4.86 g
[1]; Experiment Two, second set of rows, 0.3 mg/kg, 60 minutes
  Mean change from baseline ± SEM: 0.00 ± 0.00 g
[1]; Experiment Two, second set of rows, 0.3 mg/kg, 80 minutes
  Mean change from baseline ± SEM: 4.86 ± 4.86 g
[1]; Experiment Two, second set of rows, 0.3 mg/kg, 120 minutes
  Mean change from baseline ± SEM: 31.43 ± 5.54 g
[1]; Experiment Two, second set of rows, 1 mg/kg, 20 minutes
  Mean change from baseline ± SEM: 9.71 ± 6.27 g
[1]; Experiment Two, second set of rows, 1 mg/kg, 40 minutes
  Mean change from baseline ± SEM: 0.00 ± 10.49 g
[1]; Experiment Two, second set of rows, 1 mg/kg, 60 minutes
  Mean change from baseline ± SEM: 16.14 ± 7.73 g
[1]; Experiment Two, second set of rows, 1 mg/kg, 80 minutes
  Mean change from baseline ± SEM: 24.14 ± 7.56 g
[1]; Experiment Two, second set of rows, 1 mg/kg, 120 minutes
  Mean change from baseline ± SEM: 12.86 ± 13.38 g
[1]; median-effect model, prednisolone/nortriptyline 1:3 fixed ratios
  decrease of median-effect dose (Dm) after co-administration compared to the monotherapy: 10 fold

## CN(C)CCC=C1c2ccccc2CCc2ccccc21 [Amitriptyline]
[2]; combination with Betamethasone
  Synergy Score based on TNF-α inhibition: 0.7
[2]; combination with Budesonide
  Synergy Score based on TNF-α inhibition: 0.78
[2]; combination with Clobetasol
  Synergy Score based on TNF-α inhibition: 0.75
[2]; combination with Dexamethasone
  Synergy Score based on TNF-α inhibition: 1.2
[2]; combination with Diflorasone
  Synergy Score based on TNF-α inhibition: 0.59
[2]; combination with Hydrocortisone
  Synergy Score based on TNF-α inhibition: 0.78
[2]; combination with Prednisolone
  Synergy Score based on TNF-α inhibition: 0.68
[2]; combination with Triamcinolone
  Synergy Score based on TNF-α inhibition: 0.34
[1]; Experiment One, 1 mg/kg, 20 minutes
  Mean change from baseline ± SEM: 3.40 ± 3.40 g
[1]; Experiment One, 1 mg/kg, 40 minutes
  Mean change from baseline ± SEM: -49.80 ± 5.19 g
[1]; Experiment One, 1 mg/kg, 60 minutes
  Mean change from baseline ± SEM: -113.80 ± 7.21 g
[1]; Experiment One, 1 mg/kg, 80 minutes
  Mean change from baseline ± SEM: -177.80 ± 10.44 g
[1]; Experiment One, 1 mg/kg, 120 minutes
  Mean change from baseline ± SEM: -231.00 ± 12.33 g
[1]; [3]
  Mean change from baseline ± SEM: 11.40 ± 5.82 g
[1]; [4]
  Mean change from baseline ± SEM: -56.60 ± 9.09 g
[1]; [5]
  Mean change from baseline ± SEM: -120.60 ± 11.72 g
[1]; [6]
  Mean change from baseline ± SEM: -173.80 ± 9.90 g
[1]; [7]
  Mean change from baseline ± SEM: -192.10 ± 10.67 g
[1]; [8]
  Mean change from baseline ± SEM: 11.30 ± 5.83 g
[1]; [9]
  Mean change from baseline ± SEM: -41.90 ± 9.86 g
[1]; [10]
  Mean change from baseline ± SEM: -99.10 ± 11.33 g
[1]; [11]
  Mean change from baseline ± SEM: -148.90 ± 12.63 g
[1]; [12]
  Mean change from baseline ± SEM: -177.70 ± 16.01 g
[1]; [13]
  Mean change from baseline ± SEM: 19.90 ± 6.68 g
[1]; [14]
  Mean change from baseline ± SEM: -33.30 ± 7.80 g
[1]; [15]
  Mean change from baseline ± SEM: -93.30 ± 7.80 g
[1]; [16]
  Mean change from baseline ± SEM: -138.60 ± 6.03 g
[1]; Experiment Two, first set of rows, 3 mg/kg, 20 minutes
  Mean change from baseline ± SEM: -2.20 ± 3.62 g
[1]; Experiment Two, first set of rows, 3 mg/kg, 40 minutes
  Mean change from baseline ± SEM: -6.19 ± 5.21 g
[1]; Experiment Two, first set of rows, 3 mg/kg, 60 minutes
  Mean change from baseline ± SEM: -1.60 ± 3.83 g
[1]; Experiment Two, first set of rows, 3 mg/kg, 80 minutes
  Mean change from baseline ± SEM: 15.70 ± 5.20 g
[1]; Experiment Two, first set of rows, 3 mg/kg, 120 minutes
  Mean change from baseline ± SEM: 26.61 ± 4.90 g
